# In PubChem BioAssay AID1918947 (Molecular Pharmacology Branch, DTP, NCI, 2023):
# Test system: A498 complex spheroid viability
# Assay: Anticancer human tumor A498 cell line growth inhibition;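 also: spheroids exposed to agents for seven days before readout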;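 as to viability, T/C: 100% = DMSO vehicle-treated spheroids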
# Conditions: for IC50: curve of first compound; for viability, T/C: stronger effect = lower value
# Summary of the method: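 Drug combinations with the LSD1 inhibitor iadademstat tested on tumor cells co-cultured as spheroids with endothelial cells and mesenchymal stem cells. Concentrations descended in half-log increments from clinical Cmax or 10 microM.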
# [1] = second compound 0.1 µM, first compound 0.000316 µM
# [2] = second compound 0.1 µM, first compound 0.001 µM
# [3] = second compound 0.1 µM, first compound 0.00316 µM
# [4] = second compound 0.1 µM, first compound 0.01 µM
# [5] = second compound 0.1 µM, first compound 0.0316 µM
# [6] = second compound 0.1 µM, first compound 0.1 µM
# [7] = second compound 0.316 µM, first compound 0.000316 µM
# [8] = second compound 0.316 µM, first compound 0.001 µM
# [9] = second compound 0.316 µM, first compound 0.00316 µM
# [10] = second compound 0.316 µM, first compound 0.01 µM
# [11] = second compound 0.316 µM, first compound 0.0316 µM
# [12] = second compound 0.316 µM, first compound 0.1 µM
# [13] = second compound 1 µM, first compound 0.000316 µM
# [14] = second compound 1 µM, first compound 0.001 µM
# [15] = second compound 1 µM, first compound 0.00316 µM
# [16] = second compound 1 µM, first compound 0.01 µM
# [17] = second compound 1 µM, first compound 0.0316 µM
# [18] = second compound 1 µM, first compound 0.1 µM
# [19] = second compound 3.16 µM, first compound 0.000316 µM
# [20] = second compound 3.16 µM, first compound 0.001 µM
# [21] = second compound 3.16 µM, first compound 0.00316 µM
# [22] = second compound 3.16 µM, first compound 0.01 µM
# [23] = second compound 3.16 µM, first compound 0.0316 µM
# [24] = second compound 3.16 µM, first compound 0.1 µM
# [25] = second compound 10 µM, first compound 0.000316 µM
# [26] = second compound 10 µM, first compound 0.001 µM
# [27] = second compound 10 µM, first compound 0.00316 µM
# [28] = second compound 10 µM, first compound 0.01 µM
# [29] = second compound 10 µM, first compound 0.0316 µM
# [30] = second compound 10 µM, first compound 0.1 µM
compound,measurement,setting,value
CC(C)CC(NC(=O)CNC(=O)c1cc(Cl)ccc1Cl)B1OC(=O)CC(CC(=O)O)(C(=O)O)O1 (stereo not given) + NC1CCC(NC2CC2c2ccccc2)CC1,IC50,second compound 0.1 µM,4.58 nM
same,IC50,second compound 0.316 µM,4.93 nM
same,IC50,second compound 1 µM,4.56 nM
same,IC50,second compound 3.16 µM,4.16 nM
same,IC50,second compound 10 µM,2.95 nM
same,"viability, T/C",[1],86.6%
same,"viability, T/C",[2],91.6%
same,"viability, T/C",[3],64.4%
same,"viability, T/C",[4],18.1%
same,"viability, T/C",[5],4.94%
same,"viability, T/C",[6],3.27%
same,"viability, T/C",[7],94.3%
same,"viability, T/C",[8],102%
same,"viability, T/C",[9],72%
same,"viability, T/C",[10],14.6%
same,"viability, T/C",[11],5.43%
same,"viability, T/C",[12],2.63%
same,"viability, T/C",[13],87.7%
same,"viability, T/C",[14],96.5%
same,"viability, T/C",[15],65.5%
same,"viability, T/C",[16],15.4%
same,"viability, T/C",[17],3.18%
same,"viability, T/C",[18],1.44%
same,"viability, T/C",[19],84.3%
same,"viability, T/C",[20],91.2%
same,"viability, T/C",[21],62.4%
same,"viability, T/C",[22],9.48%
same,"viability, T/C",[23],2.6%
same,"viability, T/C",[24],0.83%
same,"viability, T/C",[25],74.9%
same,"viability, T/C",[26],83.3%
same,"viability, T/C",[27],47.5%
same,"viability, T/C",[28],7.21%
same,"viability, T/C",[29],1.59%
same,"viability, T/C",[30],0.69%
CCN(c1cc(-c2ccc(CN3CCOCC3)cc2)cc(C(=O)NCc2c(C)cc(C)[nH]c2=O)c1C)C1CCOCC1 + NC1CC1c1ccc(-c2cccc(O)c2)cc1,IC50,second compound 0.1 µM,> 3000 nM
same,IC50,second compound 0.316 µM,> 3000 nM
same,IC50,second compound 1 µM,> 3000 nM
same,IC50,second compound 3.16 µM,> 3000 nM
same,IC50,second compound 10 µM,> 3000 nM
same,"viability, T/C","second compound 0.1 µM, first compound 0.00949 µM",98.8%
same,"viability, T/C","second compound 0.1 µM, first compound 0.03 µM",112%
same,"viability, T/C","second compound 0.1 µM, first compound 0.0949 µM",98.9%
same,"viability, T/C","second compound 0.1 µM, first compound 0.3 µM",95.1%
same,"viability, T/C","second compound 0.1 µM, first compound 0.949 µM",103%
same,"viability, T/C","second compound 0.1 µM, first compound 3 µM",96.7%
same,"viability, T/C","second compound 0.316 µM, first compound 0.00949 µM",108%
same,"viability, T/C","second compound 0.316 µM, first compound 0.03 µM",106%
same,"viability, T/C","second compound 0.316 µM, first compound 0.0949 µM",108%
same,"viability, T/C","second compound 0.316 µM, first compound 0.3 µM",107%
same,"viability, T/C","second compound 0.316 µM, first compound 0.949 µM",101%
same,"viability, T/C","second compound 0.316 µM, first compound 3 µM",104%
same,"viability, T/C","second compound 1 µM, first compound 0.00949 µM",100%
same,"viability, T/C","second compound 1 µM, first compound 0.03 µM",107%
same,"viability, T/C","second compound 1 µM, first compound 0.0949 µM",97.6%
same,"viability, T/C","second compound 1 µM, first compound 0.3 µM",94.7%
same,"viability, T/C","second compound 1 µM, first compound 0.949 µM",98.4%
same,"viability, T/C","second compound 1 µM, first compound 3 µM",95.1%
same,"viability, T/C","second compound 3.16 µM, first compound 0.00949 µM",94%
same,"viability, T/C","second compound 3.16 µM, first compound 0.03 µM",92.6%
same,"viability, T/C","second compound 3.16 µM, first compound 0.0949 µM",89%
same,"viability, T/C","second compound 3.16 µM, first compound 0.3 µM",90.1%
same,"viability, T/C","second compound 3.16 µM, first compound 0.949 µM",93.8%
same,"viability, T/C","second compound 3.16 µM, first compound 3 µM",100%
same,"viability, T/C","second compound 10 µM, first compound 0.00949 µM",96.6%
same,"viability, T/C","second compound 10 µM, first compound 0.03 µM",97.2%
same,"viability, T/C","second compound 10 µM, first compound 0.0949 µM",94.9%
same,"viability, T/C","second compound 10 µM, first compound 0.3 µM",93.1%
same,"viability, T/C","second compound 10 µM, first compound 0.949 µM",90.6%
same,"viability, T/C","second compound 10 µM, first compound 3 µM",91%
CC[C@@]1(O)C(=O)OCc2c1cc1n(c2=O)Cc2cc3c(CN(C)C)c(O)ccc3nc2-1 + NC1CC1c1ccc(-c2cccc(O)c2)cc1,IC50,second compound 0.1 µM,42.5 nM
same,IC50,second compound 0.316 µM,43.7 nM
same,IC50,second compound 1 µM,37.8 nM
same,IC50,second compound 3.16 µM,30.2 nM
same,IC50,second compound 10 µM,26.1 nM
same,"viability, T/C",[1],105%
same,"viability, T/C",[2],106%
same,"viability, T/C",[3],79.1%
same,"viability, T/C",[4],76.4%
same,"viability, T/C",[5],60.6%
same,"viability, T/C",[6],29.8%
same,"viability, T/C",[7],110%
same,"viability, T/C",[8],103%
same,"viability, T/C",[9],82.2%
same,"viability, T/C",[10],73.1%
same,"viability, T/C",[11],59.6%
same,"viability, T/C",[12],33.8%
same,"viability, T/C",[13],102%
same,"viability, T/C",[14],103%
same,"viability, T/C",[15],86.5%
same,"viability, T/C",[16],69.4%
same,"viability, T/C",[17],55.8%
same,"viability, T/C",[18],32.9%
same,"viability, T/C",[19],104%
same,"viability, T/C",[20],95.4%
same,"viability, T/C",[21],74.6%
same,"viability, T/C",[22],60.5%
same,"viability, T/C",[23],58.8%
same,"viability, T/C",[24],29.5%
same,"viability, T/C",[25],103%
same,"viability, T/C",[26],92.4%
same,"viability, T/C",[27],75.8%
same,"viability, T/C",[28],65.5%
same,"viability, T/C",[29],49%
same,"viability, T/C",[30],27.7%
